From patent US12371428B2 (Exelixis, Inc., priority 2019, dated 2025) come the findings set out here.

Assay [1] deals with Human KDR (residues 790-1356) (Homo sapiens (Human), UniProt P35968). Kind of assay: Human KDR kinase assay, HTRF KinEase (Example B-2). The assay is classed as biochemical. As to the method:
Kinase activity and compound inhibition were also investigated using the HTRF® KinEase assay (Cisbio Cat #62TKOPEB) per manufacturer's instructions. In short, compounds were delivered in 300 nL volumes at 10 different concentrations in DMSO (3% final) to empty 384-well assay plates (Corning cat #3824). A mixture of enzyme, […] biotynlated peptide substrate, and buffer in 10 μL volume was added. The assay was started upon the addition of ATP (at Km). The 10 μL reaction was incubated at room temperature. The reaction was stopped upon the addition of detection buffer containing streptavidin-XL665 ([…]) and TK antibody-Eu3+([…]). After a 60 min incubation at room temperature, the fluorescence at 665 nm and 620 nm was read on an Envision microplate reader (Perkin Elmer).
Kinase activity normalized to DMSO (100% activity) and reference compound at […] and (0% activity) was calculated using the fluorescence ratio […]. IC50 values were calculated by nonlinear regression analysis using a 4-parameter logistic curve fit in ActivityBase XE (IDBS).
Example B-2: Human KDR (residues 790-1356; CarnaBio, 0.1 ng/well) was also incubated with enzymatic buffer (Cisbio) supplemented with 5 mM MgCl2, 1 mM MnCl2, and 1 mM DTT. The mixture was added to the pre-plated compounds. The reaction was initiated upon addition of ATP at Km (4.0 μM). The reaction was incubated at room temperature for 40 min and stopped upon the addition of SA-XL665 and TK-antibody both diluted in EDTA-containing kinase detection buffer (Cisbio). The kinase activity was calculated as stated above and the IC50 values were reported.

Assay [2] addresses Human MER (residues 528-999) (Homo sapiens (Human), UniProt Q12866). Kind of assay: Human Mer kinase assay, HTRF KinEase (Example C-2). The assay is classed as biochemical. The gist of the method:
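IC50 values from 10 concentrations via 4-parameter logistic fit of […], with DMSO as 100% and 1 μM reference compound as 0% activity. Reaction: MER kinase domain 528-999, 1 ng/well, 40 μM ATP (Km), biotin peptide, 5 mM MgCl2, 1 mM DTT, 3% DMSO, room temperature 60 min; HTRF streptavidin-XL665/Eu-antibody detection.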

Assay [3] has as its target Human MET (residues 956-1390) (Homo sapiens (Human), UniProt P08581). Kind of assay: Human Met kinase assay, HTRF KinEase (Example D-2). The assay is classed as biochemical. The settings on record: read-out: c-Met IC50. The gist of the method: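 IC50 values come from a 4-parameter logistic fit of the […] fluorescence ratio, set between DMSO (100%) and reference compound at 1 μM (0%). Reactions held MET 956-1390 at 0.1 ng/well, ATP at Km, biotinylated peptide, 5 mM MgCl2, 1 mM MnCl2, 1 mM DTT and 3% DMSO, and ran 40 min at room temperature before streptavidin-XL665/Eu-antibody detection.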

The target in assay [4] is Met (phospho-Met, HGF-stimulated PC-3 prostate cancer cells) (Homo sapiens (Human), UniProt P08581). In words: Met autophosphorylation ELISA in PC-3 cells (Example F). The settings on record: cellular activity; Met autophosphorylation ELISA in PC-3 cells; read-out: c-Met IC50. The assay is classed as cell-based. The essentials:
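Compounds were tested on HGF-stimulated PC-3 cells. After 24 h culture and 3 h serum starvation, cells got compound for 1 h and 100 ng/mL HGF for 10 min, and Met tyrosine phosphorylation was measured by ELISA.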

Assay [5] concerns the target Mer (phospho-Mer, MERTK-transfected 293A cells) (Homo sapiens (Human), UniProt Q12866). In words: Mer autophosphorylation ELISA in transient transfected 293A cells (Example H). Conditions: cellular activity; Mer autophosphorylation ELISA in transient transfected 293A cells. The assay is classed as cell-based. The gist of the method: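 Inhibition of cellular Mer autophosphorylation is determined in 293A cells transiently expressing human MERTK after 1 h compound exposure (8 concentrations, serum-free, 0.3% DMSO). Phospho-Mer in clarified lysates is measured by ELISA, with DMSO and reference-inhibitor wells defining the 100% and 0% activity limits.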

The mark [6] stands for this setting: protocol of Example B-2 (other compounds).
Setting [7] is: protocol of Example C-2 (other compounds).
The mark [8] stands for this setting: protocol of Example D-2 (other compounds).

SMILES strings stand for the structures. Counter-ions that a name gives are not always drawn. Like-named read-outs stand apart in the source and are kept apart here.

Chain of Human MER (residues 528-999) (Q12866 528-999): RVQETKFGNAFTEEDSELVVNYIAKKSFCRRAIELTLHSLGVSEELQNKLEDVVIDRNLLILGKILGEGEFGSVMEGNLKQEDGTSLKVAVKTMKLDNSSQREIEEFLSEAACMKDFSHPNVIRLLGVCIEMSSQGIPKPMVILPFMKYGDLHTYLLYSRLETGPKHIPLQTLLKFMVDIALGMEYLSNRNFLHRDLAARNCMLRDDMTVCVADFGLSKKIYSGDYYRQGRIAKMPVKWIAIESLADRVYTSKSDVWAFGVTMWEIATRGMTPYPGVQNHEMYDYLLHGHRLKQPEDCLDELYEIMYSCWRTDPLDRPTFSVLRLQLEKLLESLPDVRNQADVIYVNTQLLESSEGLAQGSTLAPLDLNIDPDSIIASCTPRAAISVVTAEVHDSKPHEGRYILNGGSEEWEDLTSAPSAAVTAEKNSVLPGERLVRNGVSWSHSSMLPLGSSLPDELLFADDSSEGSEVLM
Chain of Mer (phospho-Mer, MERTK-transfected 293A cells) (Q12866 21-999): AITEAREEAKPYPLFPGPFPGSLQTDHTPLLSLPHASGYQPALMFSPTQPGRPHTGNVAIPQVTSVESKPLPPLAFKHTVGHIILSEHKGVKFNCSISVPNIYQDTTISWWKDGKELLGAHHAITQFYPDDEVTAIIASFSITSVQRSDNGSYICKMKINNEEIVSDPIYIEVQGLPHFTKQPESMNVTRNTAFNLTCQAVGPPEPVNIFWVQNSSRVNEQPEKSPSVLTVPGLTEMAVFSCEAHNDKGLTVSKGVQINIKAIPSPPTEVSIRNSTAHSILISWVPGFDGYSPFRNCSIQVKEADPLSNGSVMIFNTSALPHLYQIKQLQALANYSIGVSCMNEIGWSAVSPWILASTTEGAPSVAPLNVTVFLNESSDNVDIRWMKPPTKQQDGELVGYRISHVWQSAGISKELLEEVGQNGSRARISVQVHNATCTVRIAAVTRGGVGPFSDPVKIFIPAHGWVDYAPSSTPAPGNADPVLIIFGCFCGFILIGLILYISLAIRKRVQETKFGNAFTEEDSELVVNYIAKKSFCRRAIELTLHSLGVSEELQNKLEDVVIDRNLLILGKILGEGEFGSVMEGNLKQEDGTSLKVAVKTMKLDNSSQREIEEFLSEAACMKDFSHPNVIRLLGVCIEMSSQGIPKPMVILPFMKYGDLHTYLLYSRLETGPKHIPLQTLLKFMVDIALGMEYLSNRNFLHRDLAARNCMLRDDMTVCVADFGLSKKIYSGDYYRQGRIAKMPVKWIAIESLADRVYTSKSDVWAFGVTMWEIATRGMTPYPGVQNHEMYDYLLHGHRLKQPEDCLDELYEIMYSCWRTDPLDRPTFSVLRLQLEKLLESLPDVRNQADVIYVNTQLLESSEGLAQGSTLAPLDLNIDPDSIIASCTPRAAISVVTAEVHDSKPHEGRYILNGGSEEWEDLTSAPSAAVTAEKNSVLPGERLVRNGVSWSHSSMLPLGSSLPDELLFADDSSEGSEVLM
Chain of Human KDR (residues 790-1356) (P35968 790-1356): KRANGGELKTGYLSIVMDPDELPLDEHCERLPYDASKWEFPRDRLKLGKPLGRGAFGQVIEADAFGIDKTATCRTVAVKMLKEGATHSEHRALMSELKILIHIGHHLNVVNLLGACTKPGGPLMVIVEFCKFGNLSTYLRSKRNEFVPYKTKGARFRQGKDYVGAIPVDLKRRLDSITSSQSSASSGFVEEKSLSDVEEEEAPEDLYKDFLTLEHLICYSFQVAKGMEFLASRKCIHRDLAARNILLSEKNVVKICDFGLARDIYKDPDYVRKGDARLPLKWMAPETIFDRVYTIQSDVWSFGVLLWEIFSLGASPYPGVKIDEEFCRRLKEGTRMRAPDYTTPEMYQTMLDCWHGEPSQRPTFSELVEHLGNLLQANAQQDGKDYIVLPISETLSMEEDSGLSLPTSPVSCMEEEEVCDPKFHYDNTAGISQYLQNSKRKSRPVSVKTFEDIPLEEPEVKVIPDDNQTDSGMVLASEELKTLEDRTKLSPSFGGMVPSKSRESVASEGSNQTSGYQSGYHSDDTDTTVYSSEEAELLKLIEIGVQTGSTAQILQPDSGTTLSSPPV
Chain of Met (phospho-Met, HGF-stimulated PC-3 prostate cancer cells) (P08581 25-1390): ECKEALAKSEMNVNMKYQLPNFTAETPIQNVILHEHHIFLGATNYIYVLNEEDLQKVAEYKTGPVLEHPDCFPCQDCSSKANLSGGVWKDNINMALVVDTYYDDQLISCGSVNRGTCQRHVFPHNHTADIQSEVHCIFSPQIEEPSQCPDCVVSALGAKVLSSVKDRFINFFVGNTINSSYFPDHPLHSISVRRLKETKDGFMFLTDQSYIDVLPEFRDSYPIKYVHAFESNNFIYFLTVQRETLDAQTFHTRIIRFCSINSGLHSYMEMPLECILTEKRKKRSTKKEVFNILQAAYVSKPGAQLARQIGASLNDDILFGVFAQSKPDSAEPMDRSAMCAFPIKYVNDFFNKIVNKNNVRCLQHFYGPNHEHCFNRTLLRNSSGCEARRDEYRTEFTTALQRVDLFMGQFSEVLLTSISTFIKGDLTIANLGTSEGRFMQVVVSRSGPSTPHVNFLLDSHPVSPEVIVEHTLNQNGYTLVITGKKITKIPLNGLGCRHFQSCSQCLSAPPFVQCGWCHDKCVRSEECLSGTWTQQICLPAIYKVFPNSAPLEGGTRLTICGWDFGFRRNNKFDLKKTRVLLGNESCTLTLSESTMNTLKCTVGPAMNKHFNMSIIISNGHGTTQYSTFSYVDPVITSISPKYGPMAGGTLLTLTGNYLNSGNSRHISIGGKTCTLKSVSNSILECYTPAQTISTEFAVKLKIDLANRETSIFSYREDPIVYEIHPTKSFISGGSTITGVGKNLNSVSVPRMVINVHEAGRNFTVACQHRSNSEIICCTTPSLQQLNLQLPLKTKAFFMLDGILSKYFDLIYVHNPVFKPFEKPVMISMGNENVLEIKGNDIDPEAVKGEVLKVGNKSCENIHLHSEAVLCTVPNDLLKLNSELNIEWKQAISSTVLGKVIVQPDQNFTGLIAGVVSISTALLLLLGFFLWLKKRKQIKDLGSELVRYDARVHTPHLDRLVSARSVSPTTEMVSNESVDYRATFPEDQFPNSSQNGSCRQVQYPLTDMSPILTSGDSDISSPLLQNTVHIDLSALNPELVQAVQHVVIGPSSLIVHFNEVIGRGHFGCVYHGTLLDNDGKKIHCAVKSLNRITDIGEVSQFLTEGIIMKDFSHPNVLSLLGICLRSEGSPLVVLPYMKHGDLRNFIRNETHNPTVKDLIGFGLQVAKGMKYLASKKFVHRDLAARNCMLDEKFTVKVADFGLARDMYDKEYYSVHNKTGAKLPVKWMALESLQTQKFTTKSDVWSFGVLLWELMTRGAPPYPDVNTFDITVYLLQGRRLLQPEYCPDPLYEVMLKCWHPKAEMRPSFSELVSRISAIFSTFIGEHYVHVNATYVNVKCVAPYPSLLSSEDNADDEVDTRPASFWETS
Chain of Human MET (residues 956-1390) (P08581 956-1390): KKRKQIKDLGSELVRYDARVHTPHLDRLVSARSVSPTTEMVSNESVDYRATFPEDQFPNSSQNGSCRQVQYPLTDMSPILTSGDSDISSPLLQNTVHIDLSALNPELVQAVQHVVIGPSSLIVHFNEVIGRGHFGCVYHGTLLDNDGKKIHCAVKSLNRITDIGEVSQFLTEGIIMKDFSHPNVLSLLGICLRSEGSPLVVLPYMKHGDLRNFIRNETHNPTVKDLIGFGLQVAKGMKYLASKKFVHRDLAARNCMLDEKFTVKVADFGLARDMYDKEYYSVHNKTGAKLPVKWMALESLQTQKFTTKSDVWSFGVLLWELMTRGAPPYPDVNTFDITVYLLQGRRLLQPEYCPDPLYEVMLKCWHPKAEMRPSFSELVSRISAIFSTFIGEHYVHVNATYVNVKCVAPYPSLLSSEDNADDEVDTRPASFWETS

For the compound `Cc1ncc(C(=O)Nc2ccc(Oc3ccnc4cc(Br)cnc34)cc2)c(O)c1-c1ccc(F)cc1` [Compound 149, N-[4-[(7-Bromo-1,5-naphthyridin-4-yl)oxy]phenyl]-5-(4-fluorophenyl)-4-hydroxy-6-methylpyridine-3-carboxamide], the IC50 in assay [1] (setting [6]) was 100 to 300 nM; in assay [2] (setting [7]), less than 100 nM; in assay [3] (setting [8]), less than 100 nM; in assay [4] it was less than 100 nM; in assay [5], less than 100 nM.
`COc1cc2nccc(Oc3ccc(NC(=O)c4cn(-c5ccccn5)cc(-c5ccc(F)cc5)c4=O)cc3F)c2nc1OC` [Compound 124, N-[4-[(6,7-Dimethoxy-1,5-naphthyridin-4-yl)oxy]-3-fluorophenyl]-5-(4-fluorophenyl)-4-oxo-1-pyridin-2-ylpyridine-3-carboxamide]: the 50% inhibitory concentration (IC50) in assay [1] (setting [6]) is greater than 300 nM; in assay [2] (setting [7]), less than 100 nM; in assay [3] (setting [8]), less than 100 nM; in assay [4] it was less than 100 nM; in assay [5] it was less than 100 nM.
As to `COc1cnc2c(Oc3ccc(NC(=O)c4c(C)ncn(-c5ccc(F)cc5)c4=O)cc3)ccnc2c1` [Compound 255, 1-(4-Fluorophenyl)-N-[4-[(7-methoxy-1,5-naphthyridin-4-yl)oxy]phenyl]-4-methyl-6-oxopyrimidine-5-carboxamide], the IC50 in assay [1] (setting [6]) was greater than 300 nM; in assay [2] (setting [7]), less than 100 nM; in assay [3] (setting [8]), 100 to 300 nM; in assay [4], 100 to 300 nM; in assay [5], less than 100 nM.
For `C=C(C)c1cc2nccc(Oc3ccc(NC(=O)c4cnc(C)c(-c5ccc(F)cc5C)c4O)cc3F)c2nc1OC` [Compound 449, N-[3-fluoro-4-[(6-methoxy-7-prop-1-en-2-yl-1,5-naphthyridin-4-yl)oxy]phenyl]-5-(4-fluoro-2-methylphenyl)-4-hydroxy-6-methylpyridine-3-carboxamide], the IC50 was greater than 300 nM in assay [1] (protocol of Example B-2), less than 100 nM in assay [2] (protocol of Example C-2) and greater than 300 nM in assay [3] (protocol of Example D-2).
As to `COc1ccc2nccc(Oc3ccc(NC(=O)c4c[nH]c(=O)n(-c5ccc(F)cc5)c4=O)cc3)c2n1` [Compound 339, 3-(4-fluorophenyl)-N-[4-[(6-methoxy-1,5-naphthyridin-4-yl)oxy]phenyl]-2,4-dioxo-1H-pyrimidine-5-carboxamide], the IC50 in assay [1] (setting [6]) was greater than 300 nM; in assay [2] (setting [7]), 100 to 300 nM; in assay [3] (setting [8]) it was 100 to 300 nM.
For the compound `COc1nc2c(Oc3ccc(NC(=O)c4cnc(C)c(-c5ccc(F)cc5C)c4O)cc3F)ccnc2cc1C(C)C` [Compound 591, N-[3-Fluoro-4-[(6-methoxy-7-propan-2-yl-1,5-naphthyridin-4-yl)oxy]phenyl]-5-(4-fluoro-2-methylphenyl)-4-hydroxy-6-methylpyridine-3-carboxamide], the IC50 in assay [1] (protocol of Example B-2) is greater than 300 nM; in assay [2] (protocol of Example C-2), 100 to 300 nM; in assay [3] (protocol of Example D-2) it was greater than 300 nM.
For `COc1cc2nccc(Oc3ccc(NC(=O)c4cnc(NC(=O)OC(C)(C)C)n(-c5ccc(F)cc5)c4=O)cc3F)c2nc1OC` [Compound 344, tert-butyl N-[5-[[4-[(6,7-dimethoxy-1,5-naphthyridin-4-yl)oxy]-3-fluorophenyl]icarbamoyl]-1-(4-fluorophenyl)-6-oxopyrimidin-2-yl]carbamate], the IC50 in assay [1] (setting [6]) is 100 to 300 nM; in assay [2] (setting [7]), less than 100 nM; in assay [3] (setting [8]), 100 to 300 nM.
Regarding `Cc1c(-c2ccc(F)cc2)c(=O)c(C(=O)Nc2ccc(Oc3ccnc4cc(C(F)(F)F)cnc34)c(F)c2)cn1C(C)C` [Compound 152, 5-(4-Fluorophenyl)-N-[3-fluoro-4-[[7-(trifluoromethyl)-1,5-naphthyridin-4-yl]oxy]phenyl]-6-methyl-4-oxo-1-propan-2-ylpyridine-3-carboxamide], the IC50 in assay [1] (setting [6]), in assay [2] (setting [7]) and in assay [3] (setting [8]) was greater than 300 nM throughout.
`Cc1ncc(C(=O)Nc2ccc(Oc3ccnc4cc(C(F)(F)F)cnc34)cc2)c(O)c1-c1ccc(F)cc1` [Compound 150, 5-(4-Fluorophenyl)-4-hydroxy-6-methyl-N-[4-[[7-(trifluoromethyl)-1,5-naphthyridin-4-yl]oxy]phenyl]pyridine-3-carboxamide]: the IC50 in assay [1] (setting [6]) is greater than 300 nM; in assay [2] (setting [7]), less than 100 nM; in assay [3] (setting [8]), less than 100 nM.
Regarding `C=C(C)c1cc2nccc(Oc3ccc(NC(=O)c4c(C)nc(C)c(-c5ccc(F)cc5)c4O)cc3F)c2nc1OC` [Compound 453, N-[3-fluoro-4-[(6-methoxy-7-prop-1-en-2-yl-1,5-naphthyridin-4-yl)oxy]phenyl]-5-(4-fluorophenyl)-4-hydroxy-2,6-dimethylpyridine-3-carboxamide], the results for the IC50 in assay [1] (protocol of Example B-2), in assay [2] (protocol of Example C-2) and in assay [3] (protocol of Example D-2) were 100 to 300 nM, less than 100 nM and greater than 300 nM, respectively.
The like results for `COc1nc2c(Oc3ccc(NC(=O)c4c(C)nc(C)c(-c5ccc(F)cc5)c4O)cc3F)ccnc2cc1C(C)C` [Compound 592, N-[3-Fluoro-4-[(6-methoxy-7-propan-2-yl-1,5-naphthyridin-4-yl)oxy]phenyl]-5-(4-fluorophenyl)-4-hydroxy-2,6-dimethylpyridine-3-carboxamide] were, in that order, greater than 300 nM, less than 100 nM and greater than 300 nM.
In the case of `CCOc1nc(C)c(-c2ccc(F)cc2)c(O)c1C(=O)Nc1ccc(Oc2ccnc3cc(OC)c(OC)nc23)c(F)c1` [Compound 365, N-[4-[(6,7-dimethoxy-1,5-naphthyridin-4-yl)oxy]-3-fluorophenyl]-2-ethoxy-5-(4-fluorophenyl)-4-hydroxy-6-methylpyridine-3-carboxamide], the IC50 in assay [1] (setting [6]) is greater than 300 nM; in assay [2] (setting [7]), 100 to 300 nM; in assay [3] (setting [8]) it was greater than 300 nM.
Regarding `COc1ccc(-c2cn(C)cc(C(=O)Nc3ccc(Oc4ccnc5cc(OC)c(OC)nc45)c(F)c3)c2=O)cc1` [Compound 34, N-[4-[(6,7-Dimethoxy-1,5-naphthyridin-4-yl)oxy]-3-fluorophenyl]-5-(4-methoxyphenyl)-1-methyl-4-oxopyridine-3-carboxamide hydrochloride], the IC50 is less than 100 nM in assay [1] (setting [6]), less than 100 nM in assay [2] (setting [7]) and 100 to 300 nM in assay [3] (setting [8]).
Turning to `COc1cnc2c(Oc3ccc(NC(=O)c4cn(C(C)(C)C)c(C)c(-c5ccc(F)cc5)c4=O)cc3)ccnc2c1` [Compound 165, 1-tert-Butyl-5-(4-fluorophenyl)-N-[4-[(7-methoxy-1,5-naphthyridin-4-yl)oxy]phenyl]-6-methyl-4-oxopyridine-3-carboxamide], the half-inhibitory concentration (IC50) in assay [1] (setting [6]) is greater than 300 nM; in assay [2] (setting [7]), less than 100 nM; in assay [3] (setting [8]) it was less than 100 nM; in assay [5], less than 100 nM.
Take `COc1cc2nccc(Oc3ccc(NC(=O)c4c(C)nc(OC)c(-c5ccc(F)cc5)c4OC)cc3F)c2nc1OC` [Compound 444, N-[4-[(6,7-dimethoxy-1,5-naphthyridin-4-yl)oxy]-3-fluorophenyl]-5-(4-fluorophenyl)-4,6-dimethoxy-2-methylpyridine-3-carboxamide]: the IC50 in assay [1] (setting [6]), in assay [2] (setting [7]) and in assay [3] (setting [8]) was greater than 300 nM throughout.
As for `C=C(C)c1cc2nccc(Oc3ccc(NC(=O)c4cnc(C)c(-c5ccc(F)cc5)c4O)cc3F)c2nc1OC` [Compound 452, N-[3-fluoro-4-[(6-methoxy-7-prop-1-en-2-yl-1,5-naphthyridin-4-yl)oxy]phenyl]-5-(4-fluorophenyl)-4-hydroxy-6-methylpyridine-3-carboxamide], the values for the IC50 in assay [1] (protocol of Example B-2), in assay [2] (protocol of Example C-2) and in assay [3] (protocol of Example D-2) were 100 to 300 nM, less than 100 nM and greater than 300 nM, respectively.
